Test results as given in ChEMBL document CHEMBL1212795, “Transferable quinolone resistance in Vibrio cholerae” (2010).
Converted amounts (≈) assume the structure as drawn.

Legend:
Escherichia coli [1] = experiment: Antibacterial activity against azide-resistant Escherichia coli J53 SXT1 transconjugant with qnrVC3 gene expressing Vibrio cholerae 59 strain; format: functional
Escherichia coli [2] = experiment: Antibacterial activity against azide-resistant Escherichia coli J53 SXT2 transconjugant with qnrVC3 gene expressing Vibrio cholerae 59 strain
Escherichia coli [3] = experiment: Antibacterial activity against azide-resistant Escherichia coli J53 TET1 transconjugant with qnrVC3 gene expressing Vibrio cholerae 59 strain; format: functional
Escherichia coli [4] = experiment: Antibacterial activity against azide-resistant Escherichia coli J53 TET2 transconjugant with qnrVC3 gene expressing Vibrio cholerae 59 strain
Escherichia coli [5] = experiment: Antibacterial activity against azide-resistant Escherichia coli J53 containing plasmid pQE60; format: functional
Escherichia coli [6] = experiment: Antibacterial activity against azide resistant Escherichia coli J53 transformed with pQE60-qnrVC3 gene Vibrio cholerae 59 strain; format: functional
Escherichia coli [7] = experiment: Antibacterial activity against azide-resistant Escherichia coli J53 SXT13-1 transconjugant with qnrVC3 gene expressing Vibrio cholerae 13 strain; format: functional

Row | Compound | MIC (Escherichia coli [1]) [µg/mL] | MIC (Escherichia coli [2]) [µg/mL] | MIC (Escherichia coli [3]) [µg/mL] | MIC (Escherichia coli [4]) [µg/mL] | MIC (Escherichia coli [5]) [µg/mL] | MIC (Escherichia coli [6]) [µg/mL] | MIC (Escherichia coli [7]) [µg/mL]
1 | CC1(C)S[C@@H]2[C@H](NC(=O)[C@H](N)c3ccccc3)C(=O)N2[C@H]1C(=O)O [AMPICILLIN] | 4 (≈ 11.4 µM) | 4 (≈ 11.4 µM) | 6 (≈ 17.2 µM) | 4 (≈ 11.4 µM) |  |  | 
2 | O=C(O)c1cn(C2CC2)c2cc(N3CCNCC3)c(F)cc2c1=O [CIPROFLOXACIN] | 0.047 (≈ 0.142 µM) |  |  | 0.064 (≈ 0.193 µM) |  |  | 
3 | C[C@H]1COc2c(N3CCN(C)CC3)c(F)cc3c(=O)c(C(=O)O)cn1c23.C[C@H]1COc2c(N3CCN(C)CC3)c(F)cc3c(=O)c(C(=O)O)cn1c23.O [LEVOFLOXACIN] | 0.19 | 0.032 | 0.032 | 0.125 | 0.032 | 0.19 | 
4 | CCn1cc(C(=O)O)c(=O)c2ccc(C)nc21 [NALIDIXIC ACID] | 3 (≈ 12.9 µM) | 3 (≈ 12.9 µM) | 4 (≈ 17.2 µM) | 4 (≈ 17.2 µM) |  |  | 
5 | CN[C@@H]1[C@H](O[C@H]2[C@H](O[C@H]3[C@H](O)[C@@H](O)[C@H](N=C(N)N)[C@@H](O)[C@@H]3N=C(N)N)O[C@@H](C)[C@]2(O)C=O)O[C@@H](CO)[C@H](O)[C@H]1O [STREPTOMYCIN] | > 192 | > 192 | > 192 | > 192 |  |  | 
6 | CN(C)[C@@H]1C(O)=C(C(N)=O)C(=O)[C@@]2(O)C(O)=C3C(=O)c4c(O)cccc4[C@@](C)(O)[C@H]3C[C@@H]12 [TETRACYCLINE] | 64 (≈ 144 µM) | 64 (≈ 144 µM) | 64 (≈ 144 µM) | 64 (≈ 144 µM) |  |  | 1.5 (≈ 3.38 µM)
7 | COc1cc(Cc2cnc(N)nc2N)cc(OC)c1OC [TRIMETHOPRIM] | > 32 | > 32 | > 32 | > 32 |  |  | 
8 | GENTAMICIN | 0.75 |  | 0.75 |  |  |  | 
